Data published in ChEMBL document CHEMBL5579851, “Synthesis and antifungal evaluation of novel triazole derivatives bearing a pyrazole-methoxyl moiety” (Eur J Med Chem, 2024).
Values after ≈ are worked out from the molar mass of the structure shown.

System: Candida albicans
Test: Antifungal activity against Candida albicans SC5314 assessed as inhibition of fungal growth incubated for 48 hrs by CLSI based broth microdilution assay
Format: functional
Details: not given

Q: With `C[C@@H](OCc1ccn(Cc2c(F)cccc2F)n1)[C@](O)(Cn1cncn1)c1ccc(F)cc1F` as the molecule, how does the MIC read?
A: ≤ 0.125 µg/mL

Q: How did the MIC turn out when `C[C@@H](OCc1ccn(Cc2ccc(C(F)(F)F)cc2)n1)[C@](O)(Cn1cncn1)c1ccc(F)cc1F` was run?
A: 0.25 µg/mL (≈ 0.493 µM)

Q: How did the MIC turn out when `C[C@@H](OCc1ccn(Cc2ccccc2F)n1)[C@](O)(Cn1cncn1)c1ccc(F)cc1F` was run?
A: ≤ 0.125 µg/mL

Q: `C[C@@H](OCc1ccn(Cc2ccc(I)cc2)n1)[C@](O)(Cn1cncn1)c1ccc(F)cc1F` was tested. Which MIC did it give?
A: ≤ 0.125 µg/mL

Q: `C[C@@H](OCc1ccn(Cc2cc(Cl)ccc2Cl)n1)[C@](O)(Cn1cncn1)c1ccc(F)cc1F` was tested. Which MIC did it give?
A: 0.25 µg/mL (≈ 0.492 µM)

Q: With `C[C@@H](OCc1ccn(Cc2cccc(Cl)c2)n1)[C@](O)(Cn1cncn1)c1ccc(F)cc1F` as the molecule, how does the MIC read?
A: ≤ 0.125 µg/mL

System: Candida albicans
Test: Antifungal activity against Candida albicans 10231 assessed as inhibition of fungal growth incubated for 48 hrs by CLSI based broth microdilution assay
Format: functional
Details: not given

Q: For `C[C@@H](OCc1ccn(Cc2c(F)cccc2F)n1)[C@](O)(Cn1cncn1)c1ccc(F)cc1F`, which MIC is on record?
A: 0.5 µg/mL (≈ 1.05 µM)

Q: `C[C@@H](OCc1ccn(Cc2ccc(C(F)(F)F)cc2)n1)[C@](O)(Cn1cncn1)c1ccc(F)cc1F` was tested. Which MIC did it give?
A: ≤ 0.125 µg/mL

Q: `C[C@@H](OCc1ccn(Cc2ccccc2F)n1)[C@](O)(Cn1cncn1)c1ccc(F)cc1F` was tested. Which MIC did it give?
A: 0.25 µg/mL (≈ 0.547 µM)

Q: How did the MIC turn out when `C[C@@H](OCc1ccn(Cc2ccc(I)cc2)n1)[C@](O)(Cn1cncn1)c1ccc(F)cc1F` was run?
A: ≤ 0.125 µg/mL

Q: `C[C@@H](OCc1ccn(Cc2cc(Cl)ccc2Cl)n1)[C@](O)(Cn1cncn1)c1ccc(F)cc1F` was tested. Which MIC did it give?
A: 0.5 µg/mL (≈ 0.984 µM)

Q: Which MIC does the source give for `C[C@@H](OCc1ccn(Cc2cccc(Cl)c2)n1)[C@](O)(Cn1cncn1)c1ccc(F)cc1F` here?
A: ≤ 0.125 µg/mL

System: Cryptococcus neoformans
Test: Antifungal activity against Cryptococcus neoformans 32609 assessed as inhibition of fungal growth incubated for 72 hrs by CLSI based broth microdilution assay
Format: functional
Details: not given

Q: With `C[C@@H](OCc1ccn(Cc2c(F)cccc2F)n1)[C@](O)(Cn1cncn1)c1ccc(F)cc1F` as the molecule, how does the MIC read?
A: 0.5 µg/mL (≈ 1.05 µM)

Q: Which MIC does the source give for `C[C@@H](OCc1ccn(Cc2ccc(C(F)(F)F)cc2)n1)[C@](O)(Cn1cncn1)c1ccc(F)cc1F` here?
A: 0.5 µg/mL (≈ 0.985 µM)

Q: For `C[C@@H](OCc1ccn(Cc2ccccc2F)n1)[C@](O)(Cn1cncn1)c1ccc(F)cc1F`, which MIC is on record?
A: 0.25 µg/mL (≈ 0.547 µM)

Q: With `C[C@@H](OCc1ccn(Cc2ccc(I)cc2)n1)[C@](O)(Cn1cncn1)c1ccc(F)cc1F` as the molecule, how does the MIC read?
A: 0.25 µg/mL (≈ 0.442 µM)

Q: With `C[C@@H](OCc1ccn(Cc2cc(Cl)ccc2Cl)n1)[C@](O)(Cn1cncn1)c1ccc(F)cc1F` as the molecule, how does the MIC read?
A: 0.25 µg/mL (≈ 0.492 µM)

Q: `C[C@@H](OCc1ccn(Cc2cccc(Cl)c2)n1)[C@](O)(Cn1cncn1)c1ccc(F)cc1F` was tested. Which MIC did it give?
A: 0.5 µg/mL (≈ 1.06 µM)

System: Nakaseomyces glabratus
Test: Antifungal activity against Candida glabrata 537 assessed as inhibition of fungal growth incubated for 48 hrs by CLSI based broth microdilution assay
Format: functional
Details: not given

Q: For `C[C@@H](OCc1ccn(Cc2c(F)cccc2F)n1)[C@](O)(Cn1cncn1)c1ccc(F)cc1F`, which MIC is on record?
A: 0.5 µg/mL (≈ 1.05 µM)

Q: Which MIC does the source give for `C[C@@H](OCc1ccn(Cc2ccc(C(F)(F)F)cc2)n1)[C@](O)(Cn1cncn1)c1ccc(F)cc1F` here?
A: 1 µg/mL (≈ 1.97 µM)

Q: For `C[C@@H](OCc1ccn(Cc2ccccc2F)n1)[C@](O)(Cn1cncn1)c1ccc(F)cc1F`, which MIC is on record?
A: 0.25 µg/mL (≈ 0.547 µM)

Q: For `C[C@@H](OCc1ccn(Cc2ccc(I)cc2)n1)[C@](O)(Cn1cncn1)c1ccc(F)cc1F`, which MIC is on record?
A: ≤ 0.125 µg/mL

Q: Which MIC does the source give for `C[C@@H](OCc1ccn(Cc2cc(Cl)ccc2Cl)n1)[C@](O)(Cn1cncn1)c1ccc(F)cc1F` here?
A: 0.5 µg/mL (≈ 0.984 µM)

Q: How did the MIC turn out when `C[C@@H](OCc1ccn(Cc2cccc(Cl)c2)n1)[C@](O)(Cn1cncn1)c1ccc(F)cc1F` was run?
A: 0.5 µg/mL (≈ 1.06 µM)

System: Candida parapsilosis
Test: Antifungal activity against Candida parapsilosis 22019 assessed as inhibition of fungal growth incubated for 48 hrs by CLSI based broth microdilution assay
Format: functional
Details: Lodderomyces parapsilosis

Q: For `C[C@@H](OCc1ccn(Cc2c(F)cccc2F)n1)[C@](O)(Cn1cncn1)c1ccc(F)cc1F`, which MIC is on record?
A: 0.5 µg/mL (≈ 1.05 µM)

Q: `C[C@@H](OCc1ccn(Cc2ccc(C(F)(F)F)cc2)n1)[C@](O)(Cn1cncn1)c1ccc(F)cc1F` was tested. Which MIC did it give?
A: 0.5 µg/mL (≈ 0.985 µM)

Q: For `C[C@@H](OCc1ccn(Cc2ccccc2F)n1)[C@](O)(Cn1cncn1)c1ccc(F)cc1F`, which MIC is on record?
A: 0.5 µg/mL (≈ 1.09 µM)

Q: Which MIC does the source give for `C[C@@H](OCc1ccn(Cc2ccc(I)cc2)n1)[C@](O)(Cn1cncn1)c1ccc(F)cc1F` here?
A: 0.25 µg/mL (≈ 0.442 µM)

Q: How did the MIC turn out when `C[C@@H](OCc1ccn(Cc2cc(Cl)ccc2Cl)n1)[C@](O)(Cn1cncn1)c1ccc(F)cc1F` was run?
A: 1 µg/mL (≈ 1.97 µM)

Q: Which MIC does the source give for `C[C@@H](OCc1ccn(Cc2cccc(Cl)c2)n1)[C@](O)(Cn1cncn1)c1ccc(F)cc1F` here?
A: 0.5 µg/mL (≈ 1.06 µM)

System: Pichia kudriavzevii
Test: Antifungal activity against Candida krusei 4996 assessed as inhibition of fungal growth incubated for 48 hrs by CLSI based broth microdilution assay
Format: functional
Details: not given

Q: For `C[C@@H](OCc1ccn(Cc2c(F)cccc2F)n1)[C@](O)(Cn1cncn1)c1ccc(F)cc1F`, which MIC is on record?
A: 16 µg/mL (≈ 33.7 µM)

Q: `C[C@@H](OCc1ccn(Cc2ccc(C(F)(F)F)cc2)n1)[C@](O)(Cn1cncn1)c1ccc(F)cc1F` was tested. Which MIC did it give?
A: 4 µg/mL (≈ 7.88 µM)

Q: With `C[C@@H](OCc1ccn(Cc2ccccc2F)n1)[C@](O)(Cn1cncn1)c1ccc(F)cc1F` as the molecule, how does the MIC read?
A: 8 µg/mL (≈ 17.5 µM)

Q: For `C[C@@H](OCc1ccn(Cc2ccc(I)cc2)n1)[C@](O)(Cn1cncn1)c1ccc(F)cc1F`, which MIC is on record?
A: 2 µg/mL (≈ 3.54 µM)

Q: With `C[C@@H](OCc1ccn(Cc2cc(Cl)ccc2Cl)n1)[C@](O)(Cn1cncn1)c1ccc(F)cc1F` as the molecule, how does the MIC read?
A: 4 µg/mL (≈ 7.87 µM)

Q: With `C[C@@H](OCc1ccn(Cc2cccc(Cl)c2)n1)[C@](O)(Cn1cncn1)c1ccc(F)cc1F` as the molecule, how does the MIC read?
A: 4 µg/mL (≈ 8.44 µM)

System: Candida tropicalis
Test: Antifungal activity against Candida tropicalis 8915 assessed as inhibition of fungal growth incubated for 48 hrs by CLSI based broth microdilution assay
Format: functional
Details: not given

Q: `C[C@@H](OCc1ccn(Cc2c(F)cccc2F)n1)[C@](O)(Cn1cncn1)c1ccc(F)cc1F` was tested. Which MIC did it give?
A: 0.25 µg/mL (≈ 0.526 µM)

Q: For `C[C@@H](OCc1ccn(Cc2ccc(C(F)(F)F)cc2)n1)[C@](O)(Cn1cncn1)c1ccc(F)cc1F`, which MIC is on record?
A: 0.5 µg/mL (≈ 0.985 µM)

Q: Which MIC does the source give for `C[C@@H](OCc1ccn(Cc2ccccc2F)n1)[C@](O)(Cn1cncn1)c1ccc(F)cc1F` here?
A: ~64 µg/mL (≈ 140 µM)

Q: Which MIC does the source give for `C[C@@H](OCc1ccn(Cc2ccc(I)cc2)n1)[C@](O)(Cn1cncn1)c1ccc(F)cc1F` here?
A: 0.5 µg/mL (≈ 0.884 µM)

Q: How did the MIC turn out when `C[C@@H](OCc1ccn(Cc2cc(Cl)ccc2Cl)n1)[C@](O)(Cn1cncn1)c1ccc(F)cc1F` was run?
A: 32 µg/mL (≈ 62.9 µM)

Q: With `C[C@@H](OCc1ccn(Cc2cccc(Cl)c2)n1)[C@](O)(Cn1cncn1)c1ccc(F)cc1F` as the molecule, how does the MIC read?
A: 0.25 µg/mL (≈ 0.528 µM)

System: Candida albicans
Test: Antifungal activity against fluconazole-resistant Candida albicans 901 assessed as inhibition of fungal growth incubated for 48 hrs by CLSI based broth microdilution assay
Format: functional
Details: not given

Q: `C[C@@H](OCc1ccn(Cc2ccc(I)cc2)n1)[C@](O)(Cn1cncn1)c1ccc(F)cc1F` was tested. Which MIC did it give?
A: 8 µg/mL (≈ 14.2 µM)

System: Candida albicans
Test: Antifungal activity against fluconazole-resistant Candida albicans 904 assessed as inhibition of fungal growth incubated for 48 hrs by CLSI based broth microdilution assay
Format: functional
Details: not given

Q: Which MIC does the source give for `C[C@@H](OCc1ccn(Cc2ccc(I)cc2)n1)[C@](O)(Cn1cncn1)c1ccc(F)cc1F` here?
A: 16 µg/mL (≈ 28.3 µM)

System: [Candida] auris
Test: Antifungal activity against fluconazole-resistant Candida auris 891 assessed as inhibition of fungal growth incubated for 48 hrs by CLSI based broth microdilution assay
Format: functional
Details: Candidozyma auris

Q: `C[C@@H](OCc1ccn(Cc2ccc(I)cc2)n1)[C@](O)(Cn1cncn1)c1ccc(F)cc1F` was tested. Which MIC did it give?
A: 16 µg/mL (≈ 28.3 µM)

System: [Candida] auris
Test: Antifungal activity against fluconazole-resistant Candida auris 918 assessed as inhibition of fungal growth incubated for 48 hrs by CLSI based broth microdilution assay
Format: functional
Details: Candidozyma auris

Q: Which MIC does the source give for `C[C@@H](OCc1ccn(Cc2ccc(I)cc2)n1)[C@](O)(Cn1cncn1)c1ccc(F)cc1F` here?
A: 16 µg/mL (≈ 28.3 µM)

System: [Candida] auris
Test: Antifungal activity against fluconazole-resistant Candida auris 919 assessed as inhibition of fungal growth incubated for 48 hrs by CLSI based broth microdilution assay
Format: functional
Details: Candidozyma auris

Q: `C[C@@H](OCc1ccn(Cc2ccc(I)cc2)n1)[C@](O)(Cn1cncn1)c1ccc(F)cc1F` was tested. Which MIC did it give?
A: 4 µg/mL (≈ 7.08 µM)
